Legend:
[1] = Molar enthalpy of transition or fusion; settings: Adiabatic calorimetry
[2] = for molar entropy: 101.33 kPa; for Triple point temperature: Adiabatic calorimetry

O=P([O-])([O-])[O-].[Cs+].[Mn+2] [cesium manganese(II) phosphate]
Settings	Molar enthalpy of transition or fusion, [1] [kcal/mol]	Triple point temperature, [2] [K]
Crystal 2	0.038	127
Crystal 3	0.00306	6.9

[2]
Settings	molar entropy [J/K/mol]
5 K, Crystal 3, Vacuum adiabatic calorimetry	0.572
6 K, Crystal 3, Vacuum adiabatic calorimetry	0.9894
6.9 K, Crystal 2, Vacuum adiabatic calorimetry	3.334
6.9 K, Crystal 3, Vacuum adiabatic calorimetry	1.463
7 K, Crystal 2, Vacuum adiabatic calorimetry	3.434
8 K, Crystal 2, Vacuum adiabatic calorimetry	4.099
9 K, Crystal 2, Vacuum adiabatic calorimetry	4.639
10 K, Crystal 2, Vacuum adiabatic calorimetry	5.163
15 K, Crystal 2, Vacuum adiabatic calorimetry	8.007
20 K, Crystal 2, Vacuum adiabatic calorimetry	11.12
25 K, Crystal 2, Vacuum adiabatic calorimetry	14.62
30 K, Crystal 2, Vacuum adiabatic calorimetry	18.46
35 K, Crystal 2, Vacuum adiabatic calorimetry	22.54
40 K, Crystal 2, Vacuum adiabatic calorimetry	26.78
45 K, Crystal 2, Vacuum adiabatic calorimetry	31.05
50 K, Crystal 2, Vacuum adiabatic calorimetry	35.27
60 K, Crystal 2, Vacuum adiabatic calorimetry	43.62
70 K, Crystal 2, Vacuum adiabatic calorimetry	51.79
80 K, Crystal 2, Vacuum adiabatic calorimetry	59.71
90 K, Crystal 2, Vacuum adiabatic calorimetry	67.35
100 K, Crystal 2, Vacuum adiabatic calorimetry	74.73
110 K, Crystal 2, Vacuum adiabatic calorimetry	81.91
120 K, Crystal 2, Vacuum adiabatic calorimetry	88.96
127 K, Crystal 1, Vacuum adiabatic calorimetry	95.03
127 K, Crystal 2, Vacuum adiabatic calorimetry	93.79
130 K, Crystal 1, Vacuum adiabatic calorimetry	97.11
140 K, Crystal 1, Vacuum adiabatic calorimetry	103.68
150 K, Crystal 1, Vacuum adiabatic calorimetry	110.17
160 K, Crystal 1, Vacuum adiabatic calorimetry	116.4
170 K, Crystal 1, Vacuum adiabatic calorimetry	122.56
180 K, Crystal 1, Vacuum adiabatic calorimetry	128.54
190 K, Crystal 1, Vacuum adiabatic calorimetry	134.36
200 K, Crystal 1, Vacuum adiabatic calorimetry	140.02
210 K, Crystal 1, Vacuum adiabatic calorimetry	145.67
220 K, Crystal 1, Vacuum adiabatic calorimetry	151.07
230 K, Crystal 1, Vacuum adiabatic calorimetry	156.4
240 K, Crystal 1, Vacuum adiabatic calorimetry	161.63
250 K, Crystal 1, Vacuum adiabatic calorimetry	166.79
260 K, Crystal 1, Vacuum adiabatic calorimetry	171.86
270 K, Crystal 1, Vacuum adiabatic calorimetry	176.77
280 K, Crystal 1, Vacuum adiabatic calorimetry	181.59
290 K, Crystal 1, Vacuum adiabatic calorimetry	186.41
298.15 K, Crystal 1, Vacuum adiabatic calorimetry	190.24
300 K, Crystal 1, Vacuum adiabatic calorimetry	191.15
310 K, Crystal 1, Vacuum adiabatic calorimetry	195.81
320 K, Crystal 1, Vacuum adiabatic calorimetry	200.46
330 K, Crystal 1, Vacuum adiabatic calorimetry	205.03
340 K, Crystal 1, Vacuum adiabatic calorimetry	209.61
350 K, Crystal 1, Small sample (50 mg) DSC	214.51
360 K, Crystal 1, Small sample (50 mg) DSC	218.67
370 K, Crystal 1, Small sample (50 mg) DSC	222.83
380 K, Crystal 1, Small sample (50 mg) DSC	226.99
390 K, Crystal 1, Small sample (50 mg) DSC	231.14
400 K, Crystal 1, Small sample (50 mg) DSC	235.3
410 K, Crystal 1, Small sample (50 mg) DSC	239.46
420 K, Crystal 1, Small sample (50 mg) DSC	243.61
430 K, Crystal 1, Small sample (50 mg) DSC	247.77
440 K, Crystal 1, Small sample (50 mg) DSC	251.93
450 K, Crystal 1, Small sample (50 mg) DSC	255.25
460 K, Crystal 1, Small sample (50 mg) DSC	259.41
470 K, Crystal 1, Small sample (50 mg) DSC	262.74
480 K, Crystal 1, Small sample (50 mg) DSC	266.06
490 K, Crystal 1, Small sample (50 mg) DSC	270.22
500 K, Crystal 1, Small sample (50 mg) DSC	273.55
510 K, Crystal 1, Small sample (50 mg) DSC	276.87
520 K, Crystal 1, Small sample (50 mg) DSC	280.2
530 K, Crystal 1, Small sample (50 mg) DSC	283.52
540 K, Crystal 1, Small sample (50 mg) DSC	286.85
550 K, Crystal 1, Small sample (50 mg) DSC	290.18
560 K, Crystal 1, Small sample (50 mg) DSC	293.5
570 K, Crystal 1, Small sample (50 mg) DSC	296.83
580 K, Crystal 1, Small sample (50 mg) DSC	300.15
590 K, Crystal 1, Small sample (50 mg) DSC	302.65
600 K, Crystal 1, Small sample (50 mg) DSC	305.97
610 K, Crystal 1, Small sample (50 mg) DSC	309.3
620 K, Crystal 1, Small sample (50 mg) DSC	311.79
630 K, Crystal 1, Small sample (50 mg) DSC	315.12
640 K, Crystal 1, Small sample (50 mg) DSC	317.61
650 K, Crystal 1, Small sample (50 mg) DSC	320.94

Source: the NIST ThermoML archive (doi:10.1016/j.jct.2014.06.012)
